Reference: patent US11597727B2 (THE REGENTS OF THE UNIVERSITY OF CALIFORNIA, priority 2018, dated 2023)

biological target: integrin α2β1 (Homo sapiens, UniProt P05556+P17301); assay: HT 1080 cell adhesion assay on rat tail collagen I; assay type: cell-based; design: HT1080 (human fibrosarcoma) cells (or human airway smooth muscle cells) were detached and resuspended in serum-free DMEM; endogenous in cells; host or cells: HT1080 human fibrosarcoma cells; settings: HT1080 (human fibrosarcoma) cells on rat tail collagen I, absorbance at 595 nm, triplicate; read-out: IC50s from HT 1080 Cell adhesion assay
Description: Cell adhesion Assay: Ninety-six-well flat-bottomed tissue culture plates were coated with rat tail collagen I for 1 hour at 37° C. After incubation, wells were blocked with 1% BSA at 37° C. for 1 hour. Control wells were filled with 1% BSA. HT1080 (human fibrosarcoma) cells (or human airway smooth muscle cells) were detached and resuspended in serum-free DMEM. Cells were incubated with anti-integrin alpha2 antibody control or 10-fold dilutions of each compound with a starting concentration of 10 uM for 15 minutes at 4° C. before plating. The plates were centrifuged at 10 g for 5 minutes before incubation for 1 hour at 37° C. in humidified 5% CO2. Nonadherent cells were removed by centrifugation (top side down) at 10 g for 5 minutes. Attached cells were stained with 0.5% crystal violet, and the wells were washed with PBS. The relative number of cells in each well was evaluated after solubilization in 40 μl of 2% Triton X-100 by measuring absorbance at 595 nm in a microplate reader. All determinations were carried out in triplicate.

integrin α2β1, sequence (P17301 30-1181): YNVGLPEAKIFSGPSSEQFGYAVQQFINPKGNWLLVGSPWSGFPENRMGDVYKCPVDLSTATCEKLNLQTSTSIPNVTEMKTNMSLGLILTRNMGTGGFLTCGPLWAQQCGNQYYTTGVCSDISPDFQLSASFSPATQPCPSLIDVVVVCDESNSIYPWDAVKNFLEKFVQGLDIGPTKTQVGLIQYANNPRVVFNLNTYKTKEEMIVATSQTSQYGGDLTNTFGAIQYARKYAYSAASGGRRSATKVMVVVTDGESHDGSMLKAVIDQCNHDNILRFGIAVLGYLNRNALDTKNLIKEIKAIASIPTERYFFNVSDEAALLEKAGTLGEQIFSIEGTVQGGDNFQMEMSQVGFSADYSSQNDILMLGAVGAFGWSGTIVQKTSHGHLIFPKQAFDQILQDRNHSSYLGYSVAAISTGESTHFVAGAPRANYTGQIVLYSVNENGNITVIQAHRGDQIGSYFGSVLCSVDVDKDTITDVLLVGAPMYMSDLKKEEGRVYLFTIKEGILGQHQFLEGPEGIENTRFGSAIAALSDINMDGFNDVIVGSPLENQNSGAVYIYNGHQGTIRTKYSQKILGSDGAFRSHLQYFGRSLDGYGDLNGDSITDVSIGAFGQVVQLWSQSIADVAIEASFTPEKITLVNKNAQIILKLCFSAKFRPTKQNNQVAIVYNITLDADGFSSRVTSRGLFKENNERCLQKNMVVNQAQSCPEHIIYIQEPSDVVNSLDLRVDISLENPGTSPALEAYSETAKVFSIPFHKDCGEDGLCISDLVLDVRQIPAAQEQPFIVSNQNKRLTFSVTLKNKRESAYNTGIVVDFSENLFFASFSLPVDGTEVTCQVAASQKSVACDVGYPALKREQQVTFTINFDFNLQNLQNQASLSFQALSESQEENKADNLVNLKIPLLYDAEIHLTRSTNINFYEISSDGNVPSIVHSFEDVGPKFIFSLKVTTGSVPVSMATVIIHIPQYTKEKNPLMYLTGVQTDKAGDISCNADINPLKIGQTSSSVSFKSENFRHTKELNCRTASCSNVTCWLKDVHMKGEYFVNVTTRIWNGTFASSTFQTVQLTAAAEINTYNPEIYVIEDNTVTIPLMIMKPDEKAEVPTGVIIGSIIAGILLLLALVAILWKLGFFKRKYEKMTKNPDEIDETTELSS
integrin α2β1, sequence (P05556 21-798): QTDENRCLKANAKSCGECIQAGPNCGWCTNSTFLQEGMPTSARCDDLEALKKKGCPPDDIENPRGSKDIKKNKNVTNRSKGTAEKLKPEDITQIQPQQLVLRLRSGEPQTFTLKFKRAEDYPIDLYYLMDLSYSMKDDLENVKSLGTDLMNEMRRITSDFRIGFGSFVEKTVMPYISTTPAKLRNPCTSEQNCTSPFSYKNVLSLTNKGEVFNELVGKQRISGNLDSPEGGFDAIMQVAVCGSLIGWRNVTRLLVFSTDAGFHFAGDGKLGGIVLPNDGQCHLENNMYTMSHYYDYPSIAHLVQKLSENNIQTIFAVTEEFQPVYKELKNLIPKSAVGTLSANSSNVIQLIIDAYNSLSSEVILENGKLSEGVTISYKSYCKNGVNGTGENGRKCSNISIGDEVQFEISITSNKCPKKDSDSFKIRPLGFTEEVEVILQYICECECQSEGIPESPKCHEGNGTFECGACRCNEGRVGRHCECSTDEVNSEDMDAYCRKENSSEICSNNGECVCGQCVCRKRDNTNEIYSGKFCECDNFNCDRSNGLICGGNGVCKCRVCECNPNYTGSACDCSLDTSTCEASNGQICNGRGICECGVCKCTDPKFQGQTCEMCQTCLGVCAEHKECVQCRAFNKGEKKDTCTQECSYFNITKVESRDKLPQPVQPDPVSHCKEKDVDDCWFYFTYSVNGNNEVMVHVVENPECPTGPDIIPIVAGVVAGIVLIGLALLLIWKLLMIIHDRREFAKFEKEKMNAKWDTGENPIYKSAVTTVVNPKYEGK

Compared with `CC(C)(C)NC(=O)NC[C@H](NC(=O)c1c(Cl)cccc1Cl)C(=O)O`, `CC(C)(C)OC(=O)NC[C@H](NC(=O)c1c(Cl)cccc1Cl)C(=O)O` [A2-39, (S)-3-((tert-butoxycarbonyl)amino)-2-(2,6-dichlorobenzamido)propanoic acid] is lower in IC50: greater than 100 µM for the first, 10 to 100 µM for the second.

`Cc1cc(C)c(C(=O)N[C@@H](CNC(=O)NCc2ccccc2)C(=O)O)c(C)c1` [A2-26, (S)-3-(3-benzylureido)-2-(2,4,6-trimethylbenzamido)propanoic acid] and `COc1cc(C)c(C(=O)N[C@@H](CNC(=O)NCc2ccccc2)C(=O)O)c(C)c1` [A2-60, (S)-3-(3-benzylureido)-2-(4-methoxy-2,6-dimethylbenzamido)propanoic acid] fall in the same range of IC50: 10 to 100 µM for the first, 10 to 100 µM for the second.

`O=C(NCc1ccccc1)NC[C@H](NC(=O)c1c(C(F)(F)F)cccc1C(F)(F)F)C(=O)O` [A2-27, (S)-3-(3-benzylureido)-2-(2,6-bis(trifluoromethyl)benzamido)propanoic acid] and `O=C(NCc1ccccc1)NC[C@H](NC(=O)c1c(F)cccc1Br)C(=O)O` [A2-36, (S)-3-(3-benzylureido)-2-(2-bromo-6-fluorobenzamido)propanoic acid] fall in the same range of IC50: 10 to 100 µM for the first, 10 to 100 µM for the second.

First: COc1cccc(OC)c1C(=O)N[C@@H](CNC(=O)NCc1ccccc1)C(=O)O [A2-28, (S)-3-(3-benzylureido)-2-(2,6-dimethoxybenzamido)propanoic acid]
Second: Cc1cccc(Cl)c1C(=O)N[C@@H](CNC(=O)NCc1ccccc1)C(=O)O [A2-35, (S)-3-(3-benzylureido)-2-(2-chloro-6-methylbenzamido)propanoic acid]
The IC50 of the first is higher: greater than 100 µM for the first, 10 to 100 µM for the second.

Compared with `O=C(NCc1ccccc1)NC[C@H](NC(=O)c1c(Cl)cncc1Cl)C(=O)O` [A2-29, (S)-3-(3-benzylureido)-2-(3,5-dichloroisonicotinamido)propanoic acid], `O=C(NC[C@H](NC(=O)c1c(Cl)cccc1Cl)C(=O)O)OCc1ccccc1` [A2-72, (S)-3-(((benzyloxy)carbonyl)amino)-2-(2,6-dichlorobenzamido)propanoic acid] is higher in IC50: less than 10 µM for the first, greater than 100 µM for the second.

`CC(C)CC(=O)N[C@@H](CNC(=O)NCc1ccccc1)C(=O)O` [A2-37, (S)-3-(3-benzylureido)-2-(3-methylbutanamido)propanoic acid] and `CCC(CC)C(=O)N[C@@H](CNC(=O)NCc1ccccc1)C(=O)O` [A2-38, (S)-3-(3-benzylureido)-2-(2-ethylbutanamido)propanoic acid] cannot be ordered by IC50: greater than 100 µM for the first, greater than 100 µM for the second.

First: Cc1cc(OC(C)C)cc(C)c1C(=O)N[C@@H](CNC(=O)NCc1ccccc1)C(=O)O [A2-61, (S)-3-(3-benzylureido)-2-(4-isopropoxy-2,6-dimethylbenzamido)propanoic acid]
Second: O=C(CC1CCCCC1)N[C@@H](CNC(=O)NCc1ccccc1)C(=O)O [A2-64, (S)-3-(3-benzylureido)-2-(2-cyclohexylacetamido)propanoic acid]
The IC50 of the first is lower: 10 to 100 µM for the first, greater than 100 µM for the second. The first is the more potent here.

First: O=C(NCc1ccccc1)NC[C@H](NC(=O)C1CCCCC1)C(=O)O [A2-63, (S)-3-(3-benzylureido)-2-(cyclohexanecarboxamido)propanoic acid]
Second: O=C(NCC1CCc2ccccc21)NC[C@H](NC(=O)c1c(Cl)cccc1Cl)C(=O)O (some centres unmarked) [A2-123]
The IC50 of the first is higher: greater than 100 µM for the first, less than 10 µM for the second. The second is the more potent here.

`CN(C)C(=O)NC[C@H](NC(=O)c1c(Cl)cccc1Cl)C(=O)O` [A2-70, (S)-2-(2,6-dichlorobenzamido)-3-(3,3-dimethylureido)propanoic acid] and `CCN(CC)C(=O)NC[C@H](NC(=O)c1c(Cl)cccc1Cl)C(=O)O` [A2-71, (S)-2-(2,6-dichlorobenzamido)-3-(3,3-diethylureido)propanoic acid] cannot be ordered by IC50: greater than 100 µM for the first, greater than 100 µM for the second.

Compared with `O=C(N[C@@H](CNc1nccc(-c2ccccc2)n1)C(=O)O)c1c(Cl)cccc1Cl` [A2-73, (S)-2-(2,6-dichlorobenzamido)-3-((4-phenylpyrimidin-2-yl)amino)propanoic acid], `O=C(NC[C@H](NC(=O)c1c(Cl)cccc1Cl)C(=O)O)NC(c1ccccc1)c1ccccc1` [A2-127, (S)-3-(3-benzhydrylureido)-2-(2,6-dichlorobenzamido)propanoic acid] is lower in IC50: greater than 100 µM for the first, 10 to 100 µM for the second.

`O=C(NC[C@H](NC(=O)c1c(Cl)cccc1Cl)C(=O)O)NCC12CC3CC(CC(C3)C1)C2` [A2-83] and `O=C(NCCC12CC3CC(CC(C3)C1)C2)NC[C@H](NC(=O)c1c(Cl)cccc1Cl)C(=O)O` [A2-154, (S)-3-(3-(2-(adamantan-1-yl)ethyl)ureido)-2-(2,6-dichlorobenzamido)propanoic acid] fall in the same range of IC50: 10 to 100 µM for the first, 10 to 100 µM for the second.

First: O=C(NC[C@H](NC(=O)c1c(Cl)cccc1Cl)C(=O)O)NC1Cc2ccccc2C1 [A2-84, (S)-2-(2,6-dichlorobenzamido)-3-(3-(2,3-dihydro-1H-inden-2-yl)ureido)propanoic acid]
Second: O=C(NC[C@H](NC(=O)c1c(Cl)cccc1Cl)C(=O)O)NC1CCc2ccccc2C1 (stereo partly drawn) [A2-126, (2S)-2-(2,6-dichlorobenzamido)-3-(3-(1,2,3,4-tetrahydronaphthalen-2-yl)ureido)propanoic acid]
The IC50 of the first is higher: 10 to 100 µM for the first, less than 10 µM for the second. The second is the more potent here.

First: O=C(NC[C@H](NC(=O)c1c(Cl)cccc1Cl)C(=O)O)N[C@@H]1CCc2ccccc21 [A2-85, (S)-2-(2,6-dichlorobenzamido)-3-(3-((R)-2,3-dihydro-1H-inden-1-yl)ureido)propanoic acid]
Second: O=C(NC[C@H](NC(=O)c1c(Cl)cccc1Cl)C(=O)O)N[C@H]1CCc2ccccc21 [A2-86, (S)-2-(2,6-dichlorobenzamido)-3-(3-((S)-2,3-dihydro-1H-inden-1-yl)ureido)propanoic acid]
The IC50 of the first is lower: less than 10 µM for the first, 10 to 100 µM for the second. The first is the more potent here.

`O=C(NC[C@H](NC(=O)c1c(Cl)cccc1Cl)C(=O)O)NC12CC3CC(CC(C3)C1)C2` [A2-87] and `CC(NC(=O)NC[C@H](NC(=O)c1c(Cl)cccc1Cl)C(=O)O)C12CC3CC(CC(C3)C1)C2` (stereo partly drawn) [A2-132, (2S)-3-(3-(1-(adamantan-1-yl)ethyl)ureido)-2-(2,6-dichlorobenzamido)propanoic acid] fall in the same range of IC50: 10 to 100 µM for the first, 10 to 100 µM for the second.

`O=C(NC[C@H](NC(=O)c1c(Cl)cccc1Cl)C(=O)O)N[C@@H]1CCCc2ccccc21` [A2-124, (2S)-2-(2,6-dichlorobenzamido)-3-(3-(1,2,3,4-tetrahydronaphthalen-1-yl)ureido)propanoic acid] and `O=C(NC[C@H](NC(=O)c1c(Cl)cccc1Cl)C(=O)O)N[C@H]1CCCc2ccccc21` [A2-125, (S)-2-(2,6-dichlorobenzamido)-3-(3-((S)-1,2,3,4-tetrahydronaphthalen-1-yl)ureido)propanoic acid] cannot be ordered by IC50: less than 10 µM for the first, less than 10 µM for the second.

`CC12CC3CC(C)(C1)CC(NC(=O)NC[C@H](NC(=O)c1c(Cl)cccc1Cl)C(=O)O)(C3)C2` [A2-128, (S)-2-(2,6-dichlorobenzamido)-3-(3-(3,5-dimethyladamantan-1-yl)ureido)propanoic acid] and `O=C(NC[C@H](NC(=O)c1c(Cl)cccc1Cl)C(=O)O)NC12CC3CC(CC(O)(C3)C1)C2` [A2-144, (S)-2-(2,6-dichlorobenzamido)-3-(3-(3-hydroxyadamantan-1-yl)ureido)propanoic acid] fall in the same range of IC50: 10 to 100 µM for the first, 10 to 100 µM for the second.

`CCC12CC3CC(C1)CC(NC(=O)NC[C@H](NC(=O)c1c(Cl)cccc1Cl)C(=O)O)(C3)C2` [A2-129, (S)-2-(2,6-dichlorobenzamido)-3-(3-(3-ethyladamantan-1-yl)ureido)propanoic acid] and `O=C(NC[C@H](NC(=O)c1c(Cl)cccc1Cl)C(=O)O)NC12CC3CC(C1)CC(C(=O)O)(C3)C2` [A2-143, 3-(3-((S)-2-carboxy-2-(2,6-dichlorobenzamido)ethyl)ureido)adamantane-1-carboxylic acid] fall in the same range of IC50: 10 to 100 µM for the first, 10 to 100 µM for the second.

First: O=C(NC[C@H](NC(=O)c1c(Cl)cccc1Cl)C(=O)O)NC1C2CC3CC(C2)CC1C3 (stereo partly drawn) [A2-130, (S)-3-(3-(adamantan-2-yl)ureido)-2-(2,6-dichlorobenzamido)propanoic acid]
Second: O=C(NCCC1C2CC3CC(C2)CC1C3)NC[C@H](NC(=O)c1c(Cl)cccc1Cl)C(=O)O (some centres unmarked) [A2-134]
The IC50 of the first is lower: less than 10 µM for the first, 10 to 100 µM for the second.

`O=C(NC[C@H](NC(=O)c1c(Cl)cccc1Cl)C(=O)O)NC12CC3CC(C1)CC(C(F)(F)F)(C3)C2` [A2-131, (S)-2-(2,6-dichlorobenzamido)-3-(3-(3-(trifluoromethyl)adamantan-1-yl)ureido)propanoic acid] and `O=C(NC[C@H](NC(=O)c1c(Cl)cccc1Cl)C(=O)O)NCC12CC3CC(CC(O)(C3)C1)C2` [A2-153] fall in the same range of IC50: 10 to 100 µM for the first, 10 to 100 µM for the second.

`O=C(NC[C@H](NC(=O)c1c(Cl)cccc1Cl)C(=O)O)NC12CC3CC(CC1C3)C2` [A2-145, (2S)-2-(2,6-dichlorobenzamido)-3-(3-(hexahydro-2,5-methanopentalen-3a(1H)-yl)ureido)propanoic acid] and `CC(CC12CC3CC(CC(C3)C1)C2)NC(=O)NC[C@H](NC(=O)c1c(Cl)cccc1Cl)C(=O)O` (stereo partly drawn) [A2-155, (2S)-3-(3-(1-(adamantan-1-yl)propan-2-yl)ureido)-2-(2,6-dichlorobenzamido)propanoic acid] fall in the same range of IC50: 10 to 100 µM for the first, 10 to 100 µM for the second.

With `CC(NC(=O)NC[C@H](NC(=O)c1c(Cl)cccc1Cl)C(=O)O)C12CC3CC(CC(O)(C3)C1)C2` (stereo partly drawn) [A2-152, (2S)-2-(2,6-dichlorobenzamido)-3-(3-(1-(3-hydroxyadamantan-1-yl)ethyl)ureido)propanoic acid] the IC50 was 10 to 100 µM.
